Earlier results, collected in US12728116B2, “Methods of treating multiple sclerosis” (Vanda Pharmaceuticals Inc., priority 2021, dated 2026).

Test system: adult subjects with relapsing MS
Conditions: comparison values given in brackets; cited from earlier work

| Structure (SMILES) | ECG HR effect: time of nadir post-dose (other S1P receptor modulators) [h] |
| --- | --- |
| CCCCCCCCc1ccc(CCC(N)(CO)CO)cc1 [fingolimod] | ~6 |
| CCc1cc(/C(C)=N/OCc2ccc(C3CCCCC3)c(C(F)(F)F)c2)ccc1CN1CC(C(=O)O)C1 [siponimod] | 3 to 4 |
